Series [1] deals with tetrabenazine ptosis. As to the kind of experiment: Tetrabenazin ptosis antagonism (Hoffmeister et al.). It counts as in vivo. The following applies: Table III; for ED50: Mus musculus, oral, 30 min before tetrabenazin 50 mg/kg i.p. Here is the method: The test is carried out by the method of Hoffmeister et al. adapted to mice. Groups consisting of 10-20 animals are treated orally with each dose of the test compound. The control group is treated orally with the carrier. Thirty minutes later a 50 mg/kg i.p. tetrabenazine dose is administered, whereupon after 30, 60, 90 and 120 minutes the animals with closed eye-lids are counted in each group.
On the basis of all measurements an average ptosis is calculated for each group and expressed as the percentile deviation (inhibition) from the control group. On the basis of the data thus obtained ED50 values are calculated.
[Hoffmeister, F., Wuttke, W., and Kroneberg, G.: Arzneim. Forsch. (Drug.

Series [2] deals with yohimbin toxicity. As to the kind of experiment: animal or person. Conditions: for ED50: Mus musculus; for Therapeutical index: Table IV, yohimbin toxicity, LD50/ED50. The protocol:
The test is carried out according to the method of Quinton. Groups consisting of 10 mice are used for each dose. The animal groups are treated with the suitable doses of the test compounds while the control group is treated with a carrier. An hour after the treatment a sublethal dose of yohimbin is administered intraperitoneally in a volume of 20 ml/kg. The perished animals are counted after 1 and 24 hours.

In series [3] the test system is motility. As to the kind of experiment: animal or person. It counts as in vivo. The following applies: for ED50: Mus musculus, po; for Therapeutical index: Table II, motility inhibition, LD50/ED50. The protocol: The test is accomplished according to the method of Borsy et al. in a 10-channel Dews system equipment, whereby 3 mice are used per channel. The test compound or the carrier, respectively, is administered orally, and one hour after the said treatment the animals are placed into the apparatus and the number of the interruptions of infrared radiation is registered for 30 minutes.
The results are summarized in Table II and documented by means of suitable statistics for each experiment.
[J. Borsy, E. Csanyi, I. Lazar: Arch. Int. Pharmacodyn. 124, 1 (1960)].

In series [4] the test system is acetic acid writhing. As to the kind of experiment: Acetic acid "writhing test" on mice (Newbould). It counts as in vivo, white mice. Conditions: Table VII; for ED50: Mus musculus, oral, 1 h before acetic acid i.p., read-out: ED50; for Therapeutical index: acetic acid writhing, LD50/ED50. The protocol: In the period between the 5th and 10th minutes following the administration of acetic acid the number of the characteristic "writhing" responses is counted for each animal and the "total writhing number" (within 5 minutes) is expressed as the percentage of the value obtained for the control animals. The mice are treated with the test compound and the carrier, respectively, orally 1 hour before the administration of acetic acid. 12 animals are used per dose.
[Newbould, B. D.: Brit.
For orientation: An intraperitoneal irritant provokes the stretching counted in writhing tests.

For series [5], the system named is hexobarbital narcosis. As to the kind of experiment: Hexobarbital narcosis potentiating effect. Conditions: for ED50: Mus musculus, po; for Therapeutical index LD50 /ED50: Table I, hexobarbital narcosis.
Description: The test is carried out on white mice. Groups consisting of six mice are used for each dose and test compound. The test compound is administered orally and an hour after this treatment narcosis is induced by means of a 40 mg/kg i.v. dose of hexobarbital. The control group receives carrier instead of the test compound.
Those mice are considered to be having a positive reaction which show a narcosis time at least 2.5 times longer than that of the control group. The ED50 values thus transformed are calculated.
For series [6], the system named is ulcus secretion. The experiment in a line: animal or person. The following applies: for ED50: Rattus norvegicus, po, 5 h; for Therapeutical index: Table X, ulcus secretion, LD50/ED50. Format: in vivo. Here is the method: The test is carried out according to the method of Nakamura on rats (Wistar strain) weighing 150-230 g and fasted for 48 hours. Each animal group consists of 4 male and 4 female rats. On the day of the experiment the pylorus of the animals is bound and the corresponding dose of the test compound is administered orally immidiately after operation. The animals are killed with ether 5 hours after the operation, their stomach is removed, cut along the large curve and placed on plastic plates.

Series [7] can be described thus: in vivo. The following applies: mouse, in vivo, po. Here is the method:
(§1) Male and female white mice (CFLP strain, 18-22 g) are used, 10 animals per dose. The test compounds are administered orally in a volume of 20 ml/kg. After administration the mice are observed for a period of 7 days. The animals are kept in plastic boxes, on wood litter, at room temperature. The animals receive standard mouse fodder and tap water ad libitum.

For series [8], the system named is mice. As to the kind of experiment: in vivo. The following applies: 10080 min. Here is the method: as §1
The test system of series [9] is pentetrazole spasm. As to the kind of experiment: Inhibition of pentetrazol spasm on mice. The following applies: for ED50: Mus musculus, po; for Therapeutical index: Table V, pentetrazole spasm, LD50/ED50.
Description: The modified method of Benziger and Hane is used on white mice. Groups consisting of 6 animals are used for each dose. […] The test compounds are administered orally one hour before the treatment with pentetrazole; in the control group the animals obtain the carrier orally at the same points of time.
The therapeutical index data disclosed in the above Tables are calculated by means of the following equation: [formula]
The subject of series [10] is nicotine spasm and lethality. As to the kind of experiment: Inhibition of nicotine spasm and lethality on mice (Stone). It counts as in vivo. The following applies: Table VIII; for ED50: Mus musculus, oral, 1 h before nicotine 1.4 mg/kg i.v.; for Therapeutical index: nicotine spasm and lethality, LD50/ED50. From the text:
[Stone, C. C., Mecklenburg, K. L., Torchiana, M. L.: Arch. Int.

The subject of series [11] is maximal electroshock. As to the kind of experiment: Inhibition of maximal electroshock on mice. Conditions: for ED50: Mus musculus, po; for Therapeutical index: Table VI, maximal electroshock, LD50/ED50. Background: Protection in the maximal electroshock model is a classic sign of anticonvulsant action.
Description: The test is carried out on white mice weighing 20-25 g. The animals receive an electric shock through corneal electrodes (50 Hz; 45 mA, 0.4 sec.). A total inhibition of the tonus extensor spasms of the posterior extremities is regarded as the criterium of anticonvulsive effect. The test compound and the carrier, respectively, are administered orally an hour before the electric shock.

The structures appear in SMILES notation.

`CN(C)CCC=C1c2ccccc2CCc2ccccc21` [Amitriptylin, reference compound]: in series [1], the 50% effect level (ED50) was put at a dose of 12 mg/kg. For the same compound, in series [2], it took a dose of 12.5 mg/kg to reach the 50% effect level (ED50) and the Therapeutical index was 18.

Turning to `COc1cccc(/C=C/C2=CC(=N/OCCN3CCOCC3)/CC(C)(C)C2)c1` [Example 29, 5,5-Dimethyl-3-(E)-[(3'-methoxy-phenyl)-vinyl]-1-(E)-(N-morpholino-ethoxyimino)-2-cyclohexene], the ED50 was about 200 mg/kg in series [3], about 160 mg/kg in series [4], 21.5 mg/kg in series [5] and about 200 mg/kg in series [6]. Besides, the figures for the Therapeutical index in series [3], in series [4] and in [6] were over 10.0, over 12.5 and “above 10.0”, respectively. Moreover, the “Therapeutical index LD50 /ED50” value in series [5] is over 93.0. The compound also yielded an LD50 at 168 h in [7] of over 2000 mg/kg. The 50% lethal dose (LD50) in series [8] (Table I, oral, mice) is on record as over 2000 mg/kg; in series [8] (Table II, oral, mice), over 2000 mg/kg; in series [8] (Table X), “above 2000 mg/kg”.

Regarding `CN(C)CCCO/N=C1C=C(/C=C/c2cccc(Cl)c2)CC(C)(C)C/1` [Example 8, 5,5-Dimethyl-3-(E)-[(3'-chloro-phenyl)-vinyl]-1-(E)-(3"-dimethylamino-propoxyimino)-2-cyclohexene], the ED50 in [3] was 170 mg/kg; in series [4], 178 mg/kg; in series [5] it was 180 mg/kg; in [9], 58 mg/kg; in [10] it was 35 mg/kg; in series [2] it was 35 mg/kg. Further, the Therapeutical index is 11.8 in series [3], 11.2 in [4], 34.5 in series [9] and 57.1 in [2]. Further, in series [5], the “Therapeutical index LD50 /ED50” value was found to be 11.1. Besides, in series [7], the LD50 at 168 h came to 2000 mg/kg.

For the compound `CN(C)CCCO/N=C1C=C(/C=C/c2c(Cl)cccc2Cl)CC(C)(C)C/1` [Example 7, 5,5-Dimethyl-3-[(2',6'-dichloro-phenyl)-vinyl]-1-(E)-(3"-dimethylamino-propoxyimino)-2-cyclohexene], the figures for the ED50 in series [9] and in series [2] were 80 mg/kg and 60 mg/kg, respectively. Also, the Therapeutical index in series [9] is 25.0; in series [10], 25; in [2], 33.3. This compound registered an LD50 at 168 h in series [7] of 2000 mg/kg.

On to `CC1(C)CC(/C=C/c2ccccc2Cl)=CC(=N/OCCN2CCCCC2)/C1` [Example 26, 5,5-Dimethyl-3-(E)-[(2'-chloro-phenyl)-vinyl]-1-(E)-(N-piperdinyl-ethoxyimino)-2-cyclohexene], for which the results for the ED50 in series [3] and in series [6] were about 200 mg/kg and about 50 mg/kg, respectively. Also, the Therapeutical index in [3] is listed as over 5.0; in series [6], “above 20”. The compound further displayed an LD50 at 168 h in series [7] of over 1000 mg/kg. This compound also yielded an LD50 in [8] (Table II, oral, mice) of over 1000 mg/kg.

Take `COc1cc(C(=S)N2CCOCC2)cc(OC)c1OC` [Trithiozine, reference compound]: in [6], the ED50 is about 240 mg/kg.

On to `CC1(C)CC(/C=C/c2cccc(Cl)c2)=CC(=N/OCCCN2CCOCC2)/C1` [Example 34, 5,5-Dimethyl-3-(E)-[(3'-chloro-phenyl)-vinyl]-1-(E)-(N-morpholino-propoxyimino)-2-cyclohexene], for which the ED50 is about 200 mg/kg in [4], about 100 mg/kg in series [6] and 180 mg/kg in series [9]. Further, the values for the Therapeutical index in series [4], in series [6] and in series [9] were over 10.0, “above 20.0” and over 11.0, respectively. The same compound returned an LD50 at 168 h in series [7] of over 2000 mg/kg. For the same compound, the LD50 was over 2000 mg/kg in series [8] (Table VII, oral, mice) and “above 2000 mg/kg” in [8] (Table X).

With `COc1ccc(/C=C/C2=CC(=N/OCCCN(C)C)/CC(C)(C)C2)cc1OC` [Example 10, 5,5-Dimethyl-3-(E)-[(3',4'-dimethoxy-phenyl)-vinyl]-1-(E)-(3"-dimethylamino-propoxyimino)-2-cyclohexene], the ED50 in series [3] turned out to be 60 mg/kg; in [4], 153 mg/kg; in [2], 40 mg/kg. Besides, the Therapeutical index is reported as 16.7 in series [3], 6.5 in series [4] and 25 in [2]. The compound further showed an LD50 at 168 h in [7] of 1000 mg/kg.

On to `CC(CO/N=C1C=C(/C=C/c2ccccc2)CC(C)(C)C/1)CN(C)C` (racemic) [Example 13, D,L-5,5-Dimethyl-3-(E)-phenyl-vinyl-1-(E)-(3'-dimethylamino-2'-methyl-propoxyimino)-2-cyclohexene], for which the ED50 in [3] came out at 100 mg/kg; in series [5], 9 mg/kg; in [11], 64 mg/kg. In addition, the Therapeutical index in series [3] is listed as 18.0; in series [11], 28.1. The “Therapeutical index LD50 /ED50” value in series [5] is recorded as 200.0. This compound came in with an LD50 at 168 h in [7] of 1800 mg/kg.

`CN1C(=O)OC(C)(C)C1=O` [Trimethadion, reference compound]: the ED50 in series [9] stood at 490 mg/kg. For the same compound, in series [11], it took a dose of 400 mg/kg to reach the 50% effect level (ED50) and the Therapeutical index amounted to 5.1.

In the case of `CC(CO/N=C1C=C(/C=C/c2ccc(Cl)cc2)CC(C)(C)C/1)CN(C)C` (racemic) [Example 18, D,L-5,5-Dimethyl-3-(E)-[(4'-chloro-phenyl)-vinyl]-1-(E)-(3"-dimethylamino-2"-methyl-propoxyimino)-2-cyclohexene], the ED50 in series [9] turned out to be 190 mg/kg; in series [1] it was 40 mg/kg; in series [10], 88 mg/kg. Further, the Therapeutical index in [9] is given as 10.5; in series [1] (tetrabenazin ptosis, LD50/ED50) it was 50.0; in [10] it was 22.7. The compound also returned an LD50 at 168 h in series [7] of 2000 mg/kg.

In the case of `CN(C)CCCO/N=C1C=C(/C=C/c2ccccc2)CC(C)(C)C/1` [Example 1, 5,5-Dimethyl-3-(E)-phenyl-vinyl-1-(E)-(3'-dimethylamino-propoxyimino)-2-cyclohexene], the ED50 stood at 60 mg/kg in series [3]; 160 mg/kg in series [4]; 56 mg/kg in [9]; 12 mg/kg in series [10]; 110 mg/kg in series [11]. The Therapeutical index in series [3] is 22.0; in series [4] it was 8.1; in series [9], 23.2; in series [10], 108.0; in [11], 11.8. Further, the LD50 at 168 h in [7] came to 1300 mg/kg.

For the compound `CN(C)CCO/N=C1C=C(/C=C/c2ccccc2)CC(C)(C)C/1` [Example 3, 5,5-Dimethyl-3-(E)-phenyl-vinyl-1-(E)-(2'-dimethylamino-ethoxyimino)-2-cyclohexene], the 50% effective dose (ED50) in series [3] was found to be 58 mg/kg; in series [9], 68 mg/kg; in series [10], 33 mg/kg; in series [11], 88 mg/kg. Also, the Therapeutical index in [3] stood at 17.0; in series [9] it was 14.7; in [10] it was 30.3; in [11] it was 11.4. This compound also had an LD50 at 168 h in series [7] of 1000 mg/kg.

By ED50 is commonly meant the dose that gives a 50% effect, or the effect in half of the subjects. As a reminder, the LD50 is the dose at which mortality reaches 50%.
